# Assay results from ChEMBL document CHEMBL4842379 (J Med Chem, 2021).
# Active and inactive are the calls of the source. No cut-off for these calls is given here.
# Experiments:
# [1] = Reversal of resistance to paclitaxel-induced cytotoxicity in paclitaxel-resistant human SW-620/AD300 cells assessed as reduction in paclitaxel IC50 at 2 uM pre-incubated for 4 hrs followed by paclitaxel addition and measured after 72 hrs by MTT assay; type: functional, cell-based
# [2] = biological target: T1, ATP-dependent translocase ABCB1 (Homo sapiens, UniProt P08183); test: Stabilization of P-gp in paclitaxel-resistant human SW620/AD300 cells at higher temperature incubated for 30 mins by Western blot based cellular thermal shift assay; type: cell-based; conditions: sw-620, 0.5 h
# [3] = test system: SW-620; test: Reduction in P-gp expression in paclitaxel-resistant human SW620/AD300 cells measured after 72 hrs by Western blotting analysis; type: functional, cell-based
# [4] = Toxicity in mouse xenografted with paclitaxel-resistant human SW620/AD300 cells assessed as change in body weight at 20 mg/kg, po in presence of 5 mg/kg paclitaxel treated for 3 days measured for 19 days; type: organism-based; conditions: in vivo, 456 h, time 19 day
# [5] = Reversal of resistance to colchicine-induced cytotoxicity in human SW620/AD300 cells assessed as reduction in colchicine IC50 at 0.5 uM pre-incubated for 4 hrs followed by colchicine addition and measured after 72 hrs by MTT assay; type: functional, cell-based; conditions: SW-620
# [6] = test system: SW-620; test: Effect on P-gp subcellular localization in paclitaxel-resistant human SW620/AD300 cells measured after 72 hrs by Hoechst 33258 staining based immunocytochemistry analysis; type: functional, cell-based
# [7] = Toxicity in mouse xenografted with paclitaxel-resistant human SW620/AD300 cells assessed as change in body weight at 20 mg/kg, po measured for 19 days; type: organism-based; conditions: in vivo, 456 h, time 19 day
# [8] = biological target: Cytochrome P450 3A4 (Homo sapiens, UniProt P08684); test: Inhibition of human recombinant CYP3A4 by fluorescence assay; type: ADME
# [9] = biological target: T1, ATP-dependent translocase ABCB1; test: Inhibition of P-gp in paclitaxel-resistant human SW620/AD300 cells assessed as rescue of intracellular Rhodamine 123 accumulation incubated for 24 hrs by flow cytometry; type: cell-based; conditions: sw-620, 24 h, dose 0.5-2 µM
# [10] = test system: SW-620; test: In vivo antitumor activity against paclitaxel-resistant human SW620/AD300 cells xenografted in mouse assessed as reduction in tumor volume at 20 mg/kg, po in presence of 5 mg/kg paclitaxel treated for 3 days measured for 19 days; type: functional, organism-based; conditions: time 19.0 day
# [11] = Reversal of resistance to paclitaxel-induced cytotoxicity in human SW620/AD300 cells assessed as reduction in paclitaxel IC50 at 1 uM pre-incubated for 4 hrs followed by paclitaxel addition and measured after 72 hrs by MTT assay; type: functional, cell-based; conditions: SW-620
# [12] = biological target: T1, ATP-dependent translocase ABCB1; test: Inhibition of P-gp in paclitaxel-resistant human SW620/AD300 cells assessed as accumulation of paclitaxel incubated for 24 hrs by HPLC analysis; type: cell-based; conditions: sw-620, 24 h
# [13] = biological target: T1, ATP-dependent translocase ABCB1; test: Inhibition of recombinant human P-gp ATPase activity incubated for 60 mins by luminescence based Glo assay
# [14] = test system: SW-620; test: Effect on intracellular Rhodamine 123 accumulation in human SW620 cells at 0.5 to 2 uM incubated for 24 hrs by flow cytometry; type: functional, cell-based; conditions: dose 0.5-2 µM
# [15] = Reversal of resistance to colchicine-induced cytotoxicity in human SW620/AD300 cells assessed as reduction in colchicine IC50 at 2 uM pre-incubated for 4 hrs followed by colchicine addition and measured after 72 hrs by MTT assay; type: functional, cell-based; conditions: SW-620
# [16] = Reversal of resistance to paclitaxel-induced cytotoxicity in human SW620/AD300 cells assessed as reduction in paclitaxel IC50 at 0.5 uM pre-incubated for 4 hrs followed by paclitaxel addition and measured after 72 hrs by MTT assay; type: functional, cell-based; conditions: SW-620
# [17] = Reversal of resistance to colchicine-induced cytotoxicity in human SW620/AD300 cells assessed as reduction in colchicine IC50 at 1 uM pre-incubated for 4 hrs followed by colchicine addition and measured after 72 hrs by MTT assay; type: functional, cell-based; conditions: SW-620
# [18] = Cytotoxicity against paclitaxel-resistant human SW620/AD300 cells measured after 72 hrs by MTT assay; type: functional, cell-based; conditions: SW-620, 72 h
# [19] = test system: HEK-293T; test: Cytotoxicity against human HEK293T cells expressing ABCB1 (unknown origin) measured after 72 hrs by MTT assay; type: functional, cell-based
# [20] = biological target: Epidermal growth factor receptor (Homo sapiens, UniProt P00533, L858R); test: Inhibition of EGFR L858R mutant (unknown origin)
# Epidermal growth factor receptor, sequence (P00533 25-1210 L858R limits assumed): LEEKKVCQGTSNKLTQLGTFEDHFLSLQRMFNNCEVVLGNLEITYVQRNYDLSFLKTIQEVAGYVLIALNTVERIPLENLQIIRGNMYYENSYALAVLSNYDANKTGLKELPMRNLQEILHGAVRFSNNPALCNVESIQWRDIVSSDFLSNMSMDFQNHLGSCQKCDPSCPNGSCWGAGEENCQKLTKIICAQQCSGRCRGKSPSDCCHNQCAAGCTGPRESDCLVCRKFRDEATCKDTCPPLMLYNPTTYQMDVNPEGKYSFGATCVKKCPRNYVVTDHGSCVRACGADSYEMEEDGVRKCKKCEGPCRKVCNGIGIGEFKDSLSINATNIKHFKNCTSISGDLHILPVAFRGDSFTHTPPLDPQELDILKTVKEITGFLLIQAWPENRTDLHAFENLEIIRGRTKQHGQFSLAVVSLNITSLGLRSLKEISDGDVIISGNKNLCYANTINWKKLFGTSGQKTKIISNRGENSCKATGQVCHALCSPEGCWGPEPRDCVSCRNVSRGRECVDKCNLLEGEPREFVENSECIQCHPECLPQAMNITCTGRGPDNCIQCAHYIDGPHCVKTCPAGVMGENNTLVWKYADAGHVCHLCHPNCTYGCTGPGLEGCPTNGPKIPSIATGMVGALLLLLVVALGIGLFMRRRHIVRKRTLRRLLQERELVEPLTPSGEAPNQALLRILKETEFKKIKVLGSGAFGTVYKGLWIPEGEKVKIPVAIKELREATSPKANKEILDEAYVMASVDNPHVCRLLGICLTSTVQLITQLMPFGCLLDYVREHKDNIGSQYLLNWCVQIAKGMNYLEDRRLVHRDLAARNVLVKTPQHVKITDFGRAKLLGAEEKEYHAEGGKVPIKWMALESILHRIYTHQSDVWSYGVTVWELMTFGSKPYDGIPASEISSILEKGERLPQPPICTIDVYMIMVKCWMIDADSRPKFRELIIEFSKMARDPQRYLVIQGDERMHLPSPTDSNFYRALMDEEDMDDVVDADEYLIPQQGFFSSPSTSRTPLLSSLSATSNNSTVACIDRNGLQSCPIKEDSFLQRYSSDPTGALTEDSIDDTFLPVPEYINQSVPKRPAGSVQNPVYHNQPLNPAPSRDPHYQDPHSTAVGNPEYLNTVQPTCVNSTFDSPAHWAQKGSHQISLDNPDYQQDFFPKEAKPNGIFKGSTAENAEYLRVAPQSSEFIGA
# T1 sequence (P08183 whole entry): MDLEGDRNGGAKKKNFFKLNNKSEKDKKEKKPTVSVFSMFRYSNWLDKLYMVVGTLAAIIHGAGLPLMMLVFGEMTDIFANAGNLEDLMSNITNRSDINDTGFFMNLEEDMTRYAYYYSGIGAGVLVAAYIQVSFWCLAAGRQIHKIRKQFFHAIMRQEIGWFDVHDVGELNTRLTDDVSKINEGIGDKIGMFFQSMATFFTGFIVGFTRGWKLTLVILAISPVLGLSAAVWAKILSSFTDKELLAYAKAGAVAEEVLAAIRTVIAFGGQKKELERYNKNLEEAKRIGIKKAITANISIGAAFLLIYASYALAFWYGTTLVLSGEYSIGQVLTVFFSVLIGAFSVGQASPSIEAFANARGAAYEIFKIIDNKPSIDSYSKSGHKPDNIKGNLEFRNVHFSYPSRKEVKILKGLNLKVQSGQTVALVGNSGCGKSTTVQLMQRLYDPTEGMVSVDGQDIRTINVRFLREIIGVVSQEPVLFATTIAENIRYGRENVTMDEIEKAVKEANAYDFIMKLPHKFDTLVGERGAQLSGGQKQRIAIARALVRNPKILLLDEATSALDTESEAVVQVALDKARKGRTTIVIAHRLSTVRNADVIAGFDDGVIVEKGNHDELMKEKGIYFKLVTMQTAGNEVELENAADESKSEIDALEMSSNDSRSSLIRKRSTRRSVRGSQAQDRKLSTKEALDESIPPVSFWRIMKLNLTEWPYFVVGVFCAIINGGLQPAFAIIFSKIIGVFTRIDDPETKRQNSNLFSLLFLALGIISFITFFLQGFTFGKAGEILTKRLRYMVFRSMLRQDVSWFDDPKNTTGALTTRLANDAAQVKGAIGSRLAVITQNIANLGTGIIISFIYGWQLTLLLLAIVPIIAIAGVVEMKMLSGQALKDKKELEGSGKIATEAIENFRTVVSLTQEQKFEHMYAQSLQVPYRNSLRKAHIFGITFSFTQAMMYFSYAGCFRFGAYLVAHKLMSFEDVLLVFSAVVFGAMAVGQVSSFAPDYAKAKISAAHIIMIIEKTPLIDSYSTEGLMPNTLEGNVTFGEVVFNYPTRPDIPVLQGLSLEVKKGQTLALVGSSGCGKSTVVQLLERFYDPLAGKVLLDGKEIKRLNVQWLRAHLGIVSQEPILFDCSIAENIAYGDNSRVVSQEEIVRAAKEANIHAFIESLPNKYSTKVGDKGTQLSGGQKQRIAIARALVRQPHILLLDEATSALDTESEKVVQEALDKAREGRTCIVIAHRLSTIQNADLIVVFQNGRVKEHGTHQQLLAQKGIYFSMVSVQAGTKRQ
# Cytochrome P450 3A4, sequence (P08684 whole entry): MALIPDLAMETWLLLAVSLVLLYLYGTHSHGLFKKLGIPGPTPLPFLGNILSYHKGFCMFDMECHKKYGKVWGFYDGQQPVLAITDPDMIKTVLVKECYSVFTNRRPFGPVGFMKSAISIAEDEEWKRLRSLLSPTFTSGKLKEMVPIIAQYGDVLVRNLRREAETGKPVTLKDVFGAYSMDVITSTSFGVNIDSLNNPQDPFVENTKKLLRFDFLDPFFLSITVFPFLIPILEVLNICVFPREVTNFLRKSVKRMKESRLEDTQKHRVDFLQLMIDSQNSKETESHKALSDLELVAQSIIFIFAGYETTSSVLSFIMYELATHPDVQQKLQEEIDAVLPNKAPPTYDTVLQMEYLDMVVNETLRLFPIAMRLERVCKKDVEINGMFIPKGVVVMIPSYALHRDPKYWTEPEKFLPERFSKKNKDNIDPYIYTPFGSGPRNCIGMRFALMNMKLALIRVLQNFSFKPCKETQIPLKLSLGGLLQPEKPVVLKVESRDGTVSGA
Structure (SMILES),Paclitaxel IC50 in presence of compound at 2 uM [1],further results
COc1cc2ncnc(-c3c(-c4ccccc4)n(C)c4ccccc34)c2cc1OCCCN1CCOCC1,100 nM,–
COc1ccc2c(-c3ncnc4cc(OC)c(OCCCN5CCOCC5)cc34)cn(Cc3ccccc3)c2c1,100 nM,–
CCCCn1cc(-c2ncnc3cc(OC)c(OCCCN4CCOCC4)cc23)c2ccccc21,400 nM,–
COc1cc2ncnc(-c3c(-c4ccccc4F)[nH]c4ccccc34)c2cc1OCCCN1CCOCC1,500 nM,–
COc1cc2ncnc(-c3c(-c4cccc(Br)c4)[nH]c4ccccc34)c2cc1OCCCN1CCOCC1,3000 nM,–
COc1cc2ncnc(-c3c(-c4ccc(C)cc4)[nH]c4ccccc34)c2cc1OCCCN1CCOCC1,300 nM,–
COc1cc2ncnc(-c3c(-c4ccccc4)n(Cc4ccccc4Br)c4ccccc34)c2cc1OCCCN1CCOCC1,–,"Activity [2]: Dose-Dependent Effect; Activity [3]: inactive; Activity [4]: Non-Toxic; IC50 [5]: 26500 nM; Activity [6]: inactive; Activity [7]: Non-Toxic; IC50 [8]: 4100 nM; Activity [9]: Dose-Dependent Effect; Activity [10]: Active; IC50 [11]: 20 nM; Activity [12]: Dose-Dependent Effect; IC50 [13]: 5100 nM; Activity ([13]; human, 1 h, time 60 min): Dose-Dependent Effect; Activity [14]: inactive; IC50 [15]: 6200 nM; IC50 [16]: 100 nM; IC50 [17]: 17200 nM"
COc1cc2ncnc(-c3cn(Cc4ccccc4)c4cccc(OC)c34)c2cc1OCCCN1CCOCC1,1000 nM,–
COc1cc2ncnc(-c3c(-c4cccc(F)c4)[nH]c4ccccc34)c2cc1OCCCN1CCOCC1,800 nM,–
COc1cc2ncnc(-c3c(-c4ccc(Br)cc4)[nH]c4ccccc34)c2cc1OCCCN1CCOCC1,200 nM,–
COc1cc2ncnc(-c3c(-c4cccc(C)c4)[nH]c4ccccc34)c2cc1OCCCN1CCOCC1,400 nM,–
COc1cc2ncnc(-c3cn(Cc4ccccc4)c4ccccc34)c2cc1OCCCN1CCOCC1,50 nM,–
COc1cc2ncnc(-c3c(-c4ccccc4)n(Cc4cccc(Br)c4)c4ccccc34)c2cc1OCCCN1CCOCC1,20 nM,–
COc1cc2ncnc(-c3c(-c4ccc(F)cc4)[nH]c4ccccc34)c2cc1OCCCN1CCOCC1,300 nM,–
COc1cc2ncnc(-c3c(Cc4ccccc4)[nH]c4ccccc34)c2cc1OCCCN1CCOCC1,2000 nM,–
CCn1c(-c2ccccc2)c(-c2nc(-c3ccccc3)nc3ccccc23)c2ccccc21,1200 nM,–
COc1cc2ncnc(-c3c(-c4ccc(Cl)cc4)[nH]c4ccccc34)c2cc1OCCCN1CCOCC1,20 nM,–
COc1cc2ncnc(-c3c(-c4ccccc4)n(Cc4cccc(C(F)(F)F)c4)c4ccccc34)c2cc1OCCCN1CCOCC1,20 nM,–
COc1cc2ncnc(-c3c(CCc4ccccc4)[nH]c4ccccc34)c2cc1OCCCN1CCOCC1,200 nM,–
COc1cc2ncnc(-c3c(-c4cccc([N+](=O)[O-])c4)[nH]c4ccccc34)c2cc1OCCCN1CCOCC1,600 nM,–
COc1cc2ncnc(-c3cn(Cc4cccc(C)c4)c4ccccc34)c2cc1OCCCN1CCOCC1,30 nM,–
COc1cc2ncnc(-c3c(-c4ccccc4)n(CCCc4ccccc4)c4ccccc34)c2cc1OCCCN1CCOCC1,6 nM,–
COc1ccc(CCN(C)CCCC(C#N)(c2ccc(OC)c(OC)c2)C(C)C)cc1OC (configuration not stated),–,Activity [12]: Dose-Dependent Effect; Activity [14]: inactive; IC50 [15]: 20600 nM

Structure (SMILES),Paclitaxel IC50 in presence of compound at 2 uM [1],further results
COc1cc2ncnc(-c3c(-c4ccccc4)[nH]c4ccccc34)c2cc1OCCCN1CCOCC1,800 nM,–
CCCCc1ccc(-c2[nH]c3ccccc3c2-c2ncnc3cc(OC)c(OCCCN4CCOCC4)cc23)cc1,100 nM,–
C=CCn1c(-c2ccccc2)c(-c2ncnc3cc(OC)c(OCCCN4CCOCC4)cc23)c2ccccc21,2300 nM,–
COc1cc2ncnc(-c3c(-c4ccc5ccccc5c4)[nH]c4ccccc34)c2cc1OCCCN1CCOCC1,40 nM,–
COc1cc2ncnc(-c3c(-c4ccc(C(F)(F)F)cc4)[nH]c4ccccc34)c2cc1OCCCN1CCOCC1,700 nM,–
CCn1c(-c2ccccc2)c(-c2ncnc3cc(OC)c(OC)cc23)c2ccccc21,1600 nM,–
COc1cc2ncnc(-c3c(-c4cccc(Cl)c4)[nH]c4ccccc34)c2cc1OCCCN1CCOCC1,200 nM,–
CCn1cc(-c2ncnc3cc(OC)c(OCCCN4CCOCC4)cc23)c2ccccc21,300 nM,–
C#CCn1c(-c2ccccc2)c(-c2ncnc3cc(OC)c(OCCCN4CCOCC4)cc23)c2ccccc21,2200 nM,–
COc1cc2ncnc(-c3c(-c4ccc(C(C)C)cc4)[nH]c4ccccc34)c2cc1OCCCN1CCOCC1,300 nM,–
CC(=O)O[C@H]1C(=O)[C@@]2(C)[C@H]([C@H](OC(=O)c3ccccc3)[C@]3(O)C[C@H](OC(=O)[C@H](O)[C@@H](NC(=O)c4ccccc4)c4ccccc4)C(C)=C1C3(C)C)[C@]1(OC(C)=O)CO[C@@H]1C[C@@H]2O [PACLITAXEL],–,IC50 [18]: 2300 nM; IC50 [19]: 36400 nM
CCn1c(-c2ccccc2)c(-c2ncnc3cc(OC)c(OCCCN4CCOCC4)cc23)c2ccccc21,700 nM,IC50 [20]: 1.3 nM
CCn1c(-c2ccccc2)c(-c2ncnc3ccc(Br)cc23)c2ccccc21,2200 nM,–
COc1cc2ncnc(-c3cn(Cc4ccc(C#N)cc4)c4ccccc34)c2cc1OCCCN1CCOCC1,200 nM,–
COc1cc2c(c(OC)c1OC)-c1ccc(OC)c(=O)cc1[C@@H](NC(C)=O)CC2 [COLCHICINE],–,IC50 [18]: 62500 nM; IC50 [19]: 801000 nM
CCc1ccc(-c2[nH]c3ccccc3c2-c2ncnc3cc(OC)c(OCCCN4CCOCC4)cc23)cc1,70 nM,–
CCn1c(-c2ccccc2)c(-c2ncnc3cc(OCCOC)c(OCCOC)cc23)c2ccccc21,800 nM,–
COc1cc2ncnc(-c3cn(Cc4ccccc4Cl)c4ccccc34)c2cc1OCCCN1CCOCC1,20 nM,–
CCn1c(-c2ccccc2)c(-c2ncnc3ccccc23)c2ccccc21,2200 nM,–
COc1ccc2c(c1)c(-c1ncnc3cc(OC)c(OCCCN4CCOCC4)cc13)cn2Cc1ccccc1,200 nM,–
COc1cc2ncnc(-c3c(-c4ccccc4)n(Cc4cccc(Cl)c4)c4ccccc34)c2cc1OCCCN1CCOCC1,20 nM,–
COc1cc2ncnc(-c3c(-c4ccccc4)n(Cc4ccc(Cl)cc4)c4ccccc34)c2cc1OCCCN1CCOCC1,7 nM,–
COc1cc2ncnc(-c3c(-c4ccc(-c5ccccc5)cc4)[nH]c4ccccc34)c2cc1OCCCN1CCOCC1,20 nM,–
